Test results: patent publication EP2759295A1, “Foam cell specific Liver X Receptor (LXR) alpha agonist, SIRT1 inhibitors as well as p300 inhibitors as pharmaceutically active agents” (Max-Planck-Gesellschaft zur Förderung der Wissenschaften …, priority 2013, dated 2014)
Read-outs that look alike come from different tables or passages of the source.

Columns and labels:
Format in all cases: cell-based, human
foam cells [1] = assay: cholesterol content in foam cells (Amplex Red Cholesterol Assay); details: 10 µM, 48 h
Experimental: (§1) THP-1 monocytes were plated out into 24-well plates (Nunc) at a density of 2 x 10^5 cells/well. After differentiation and treatment cells were lysed with 100 µL lysis buffer (PBS, 0.25 M NaCl, 1% Triton X-100). Total and free cholesterol were determined using the colorimetric enzymatic Amplex Red Cholesterol Assay Kit (Invitrogen). Triglycerides were quantified by Triglyceride Assay Kit (BioVision). For normalisation protein content was determined with Pierce 660 nm Protein Assay Reagent (Thermo Scientific).

foam cells [2] = assay: Western blot of LXRα and APOE content in foam cells; details: densitometry
Experimental: Whole cell extracts were harvested from three biological replicates and denaturized for SDS-PAGE (NuPAGE Novex 4-12% Bis-Tris Gels). Proteins were blotted on nitrocellulose Hybond ECL membrane and incubated with strictly validated published antibodies against LXRα (Abcam, ab 41902), APOE (Abcam ab1906), and as housekeeping protein control β-Actin (Santa Cruz Biotechnology, sc-47778, C4). Secondary antibodies were HRP labeled anti-mouse and anti-rabbit (Santa Cruz Biotechnology). After detection with Western Lightning Plus-ECL solution membranes were stripped with Restore Plus Western Blot Stripping Buffer. Densitometry was performed in ImageQuant TL (GE Healthcare). This tool measures quantitatively the optical density and provides more accurate data than simple eye-observations. The calculation of log (protein of interest/ β-Actin) corrects data for loading imbalances.

macrophages = assay: triglyceride content in macrophages (Triglyceride Assay Kit); details: 10 µM, 48 h
Experimental: as §1

foam cells [3] = assay: siRNA-mediated LXRα/β knockdown in foam cells with qPCR; details: 10 µM ligand for 24 h
Experimental: Target specificity of ligand-dependent gene expression effects was investigated in siRNA-mediated LXRα and β-knockdown foam cells with subsequent qPCR or microarray analysis. Therefore, 2 x 10^5 THP-1 cells/well were differentiated in 24-well plate and induced to foam cells prior to knockdown as described above. Foam cells were transfected using TransIT-TKO transfection reagent (Mirus Bio), for combined knockdown with 15 nM LXRα Silencer Validated siRNA (Ambion, ID 5458) and 15 nM LXRβ Silencer Select Validated siRNA (Ambion, ID s14684) and with 30 nM LXRα or LXRβ for individual knockdowns, respectively. As control we used 30 nM Silencer Select Negative Control #1 (Ambion). Transfection was carried out for 48 h and followed by treatment with 10 µM ligand or vehicle control for 24 h.
(§2) Total RNA isolation and purification was performed by using the RNeasy Mini Kit (QIAGEN) and RNase-Free DNase Set (QIAGEN). cDNA was generated by reverse transcription using the High Capacity cDNA Reverse Transcription Kit (Applied Biosystems). Gene expression was quantified using the SYBR Green PCR Master Mix (Applied Biosystems) and ABI 7900HT Fast Real Time PCR System (Applied Biosystems). In each reaction 0.8 ng/µL cDNA and 0.2 µM primers were used. Gene expression was calculated with the ΔΔCt-method. β-Actin was used for normalisation.

THP-1 macrophages [4] = assay: qPCR gene expression of LXRα target genes in THP-1 macrophages
Experimental: (§3) For generating macrophages differentiation was induced by 10^-8 M Phorbol 12-myristate 13-acetate (PMA) (Sigma-Aldrich) for 48 h. Ligand treatment of macrophages was performed for further 24 h. To induce foam cell formation macrophages were treated for additional 48 h with 100 µg/mL modified human oxidized low density lipoprotein (oxLDL) obtained from Source BioScience (RP-048). Ligand treatment was performed simultaneously with foam cell formation. Cholesterol loading and treatment was controlled with Oil Red O staining (Alfa Aeser). To investigate ligand induced effects on cell proliferation of THP-1 macrophages CellTiter-Glo Luminescent Cell Viability Assay (Promega) was utilized.
as §2

THP-1 macrophages [5] = assay: CellTiter-Glo viability assay in THP-1 macrophages
Experimental: as §3

## C(=C\c1ccc(OCC2CO2)cc1)/c1ccccc1 (centres unmarked) [compound 1, 2-[[4-[(E)-styryl]phenoxy]-methyl]oxirane]
Foam cells [1]
  total and esterified cholesterol content: significant reduction of total and esterified cholesterol content
Foam cells [2]
  protein expression levels of LXRα target genes: increased protein expression levels of LXRα target genes
macrophages
  triglyceride level: stayed unchanged
Foam cells [3]
  gene expression of LXRα and ABCA1 after LXRα/β knockdown: higher dependency on the LXRα subtype
THP-1 macrophages [4]; 10 µM
  expression of LXRα target genes (LXRα, SREBF1, ABCA1, APOE): only marginally activated LXR-target genes in macrophages
THP-1 macrophages [4]; in the presence of 1 µM T09
  ABCA1 expression: additive effects
THP-1 macrophages [5]
  no cytotoxic effects / no reduction of cellular viability up to: up to 50 µM
THP-1 macrophages [5]; listed as Compound 1
  no cytotoxic effects / no reduction of cellular viability up to: up to 25 µM
